Experiments:
[1] = test system: collagenase; experiment: Inhibition of collagenase expression in human fibroblasts; assay type: cell-based; conditions: 10^−4 M test material, 24 hours, untreated group = 100
Experimental: The collagenase expression inhibitory activities of the Chrysanthemum indicum var. albescens extract prepared in Preparation Example 1 and the Chrysanthemum indicum extract prepared in Comparative Preparation Example 1 were measured comparatively with those of tocopherol and EGCG. Tocopherol and EGCG are antioxidant substances known to function to regenerate the epidermal cells of the skin to prevent the aging of the skin.
In the test, human fibroblasts were added to a 96-well microtiter plate containing 2.5% FBS-containing DMEM (Dulbecco's Modified Eagle's Media) medium at a density of 5,000 cells/well and were cultured to a confluence of about 90%. […]
The production of collagenase in the harvested cell cultures was measured using a commercially available collagenase measuring device (Amersham Pharmacia, USA). […]
The absorbance of the 96-well plate having a yellow color was measured at 405 nm using a spectrophotometer, and the degree of synthesis of collagenase was calculated using the following Equation 1. Herein, the absorbance of the cell culture broth harvested from the group not treated with the test material was used as a control. That is, the expression level of collagenase in the untreated group was set as 100, and the expression level of collagenase in the group treated with the test material was calculated relative to the untreated group. […]

[2] = test system: C57BL/6 mouse melanocytes (Mel-Ab cells); experiment: Melanin production inhibitory effect using mouse melanocytes; assay type: cell-based; conditions: 25 ppm test material, three consecutive days, absorbance at 400 nm
Experimental: The melanin production inhibitory activities of the Chrysanthemum indicum var. albescens extract prepared in Preparation Example 1 and the Chrysanthemum indicum extract prepared in Comparative Preparation Example 1 were measured comparatively with those of the known whitening substance hydroquinone.
C57BL/6 mouse melanocytes (Mel-Ab cells) (Dooley, T. P. et al, Skin pharmacol, 7, pp 188-200) were cultured in DMEM, containing 10% fetal bovine serum, 100 nM 12-O-tetradecanoylphorbol-13-acetate and 1 nM cholera toxin, under the conditions of 37° C. and 5% CO2. The cultured Mel-Ab cells were detached with 0.25% trypsin-EDTA and cultured in a 24-well plate at a concentration of […]. Then, during three consecutive days from 2 days of culture, each of the test materials was added thereto and cultured. As the test materials, 25 ppm of each of the Chrysanthemum indicum var. albescens extract of Preparation Example 1, the Chrysanthemum indicum extract of Comparative Preparation Example 1, and hydroquinone were used. Herein, the hydroquinone was used as a positive control. […] The lysed cells were measured for absorbance at 400 nm, and based on the measured absorbance, the percent inhibition of melanin production was calculated according to the following equation 2. Percent inhibition of melanin production=100−(absorbance of test material/absorbance of control×100) Equation 2

[3] = test system: skin of panels sensitive to irritation; experiment: Irritation test (stinging, burning) in panels sensitive to irritation; assay type: in vivo; conditions: 0.5 mL applied to skin, 15 panels
Experimental: In order to compare the sensory feeling of the Chrysanthemum indicum var. albescens extract of the present invention with that of the known whitening substance kojic acid, 15 panels sensitive to irritation, such as stinging, burning, etc., were subjected to a test for determining irritation, such as stinging, burning, etc.
Each test panel was allowed to apply 0.5 mL of each of kojic acid (available from YM Chemical Co.) and the Chrysanthemum indicum var. albescens extract to his/her skin randomly at the left side or right side, and then evaluate the test sample by grading from 0 to 3.0 at an interval of 0.1.
0.5-1.0: slight irritation;
1.1-2.0: mild irritation;
2.1-3.0: severe irritation.

[4] = grade 0 to 3.0 at interval of 0.1

Molecule: tocopherol
- Collagenase expression level (%) [1]: 76%

Molecule: Oc1ccc(O)cc1 [Hydroquinone, hydroquinone]
- inhibition at 25 ppm [2]: 48.2%

Molecule: O=C(O[C@@H]1Cc2c(O)cc(O)cc2O[C@@H]1c1cc(O)c(O)c(O)c1)c1cc(O)c(O)c(O)c1 [EGCG]
- Collagenase expression level (%) [1]: 69%

Molecule: O=c1cc(CO)occ1O [Kojic acid, kojic acid]
- Irritation with respect to stinging and burning (in words) [3]: slight stinging and burning
- Average (irritation grade of stinging and burning) ([3]; grade 0 to 3.0): 0.67
- Burning (irritation grade 0 to 3.0) [3, 4]: 0.43
- Stinging (irritation grade 0 to 3.0) [3, 4]: 0.91

Source: US10149817B2, “Topical skin treatment composition comprising dendranthema indicum extract” (AMOREPACIFIC CORPORATION, priority 2011, dated 2018)
